The results in this text go back to patent US10918687B2, “Kava derived therapeutic compounds and methods of use thereof” (KUALITY HERBCEUTICS LLC, priority 2013, dated 2021).

The test system of series [1] is APAP-induced hepatotoxicity. The series can be described thus: Short-term combination study: potentiation of APAP-induced hepatotoxicity in C57BL/6 mice.
Source text: Six week-old female C57BL/6J mice (Jackson Laboratories, ME) were housed at specific pathogen-free animal facilities of Research Animal Resources, University of Minnesota with free access to standard rodent food and water. All mice were acclimatized for one week before being used for experiments. Mice were gavaged with dose formulations at the indicated doses and times, euthanized by CO2 overdosing with necropsy performed by experienced researchers.
The short-term combination studies were designed to evaluate the potential synergism of kava and its chemicals to APAP induced hepatotoxicity. C57BL/6 mice were randomized (8-15 mice per group) and were administered with PEG-400 (200 μL), kava (500 mg/kg bodyweight), DHM or FKA and FKB in PEG-400 (200 μL) at the indicated doses daily via oral gavage for two days. On the third day, mice in the respective groups were co-administered with APAP (800 mg/kg bodyweight) in PEG-400 (200 μL). Bodyweight was recorded daily. Necropsies were performed 24 hours after the last gavage by experienced researchers. Serum from each mouse was analyzed for ALT and AST. Livers were collected and preserved in 10% neutral buffered formalin. Appropriately fixed tissues were processed into paraffin blocks using standard histological techniques, and 5 μm sections were cut and stained with hematoxylin and eosin (H&E).
The clinical chemistry data were reported as mean±SD (n=4-15). […] One-way analysis of variance (ANOVA) was used to compare the means among different groups in the short-term combination studies. Dunnett's test was used for comparisons of APAP and other treatment groups when the one-way ANOVA analysis was statistically significant. p-value≤0.05 was considered statistically significant. All analyses were conducted in GraphPad Prism 4 (GraphPad Software, Inc. La Jolla, Calif.).
Series [2] relates to NNK-induced DNA adducts in lung tissues. Description: NNK-induced DNA adducts in A/J mouse lung tissues (LC-ESI-MS/MS). In kind it is in vivo, A/J mice. Conditions: 24 h after NNK. An excerpt: DNA was isolated from the whole lung tissue of each individual mouse following Puregene DNA isolation protocol (Qiagen Corp, Valencia, Calif.) (Urban et al., Chem Res Toxicol 2012; 25:2167-78). 7-pobG, O^2-pobdT, O^6-pobdG, and O^6-mG were quantified by LC-ESI-MS/MS, following established protocols (Urban et al., Chem Res Toxicol 2012; 25:2167-78; Peterson et al., Cancer Res 1991; 51:5557-64).
After one-week acclimation, A/J mice were weighed and randomized into seven groups (3 mice per group) and switched to the AIN-93 G diet on a date defined as Day 1. Mice in Groups 1 and 2 were given the AIN-93 G diet during Day 1-Day 7. Mice in Groups 3-7 were given the AIN-93 G diet supplemented with desmethoxyyangonin, (+)-DHK, (+)-kavain, (+)-DHM, or (+)-methysticin respectively, at a dose of 1 mg/g of diet during Day 1-Day 7. Mice in Groups 2-7 were given a single dose of NNK at 100 mg/kg bodyweight in saline (0.1 ml) via intraperitoneal (i.p.) injection at the beginning of Day 7 while mice in Group 1 were given saline (0.1 ml). Mice were euthanized by CO2 overdosing 24 h after NNK treatment, and lung tissues were collected and stored at −80° C. until DNA isolation. A number of NNK-induced DNA modifications (O^6-mG, 7-pobG, O^6-pobdG and O^2-pobdT) were quantified by following a reported procedure (Leitzman, P et al. (2014) Cancer. Prev. Res., 7: 86-96).
(§1) After one-week acclimation, A/J mice were weighed and randomized into ten groups (3 mice per group except for Group 1 that had one mouse as the negative control) and switched to the AIN-93 G diet on a date defined as Day 1. Mice in Groups 1 and 2 were given the AIN-93 G diet during Day 1-Day 7. Mice in Groups 3-10 were given the AIN-93 G diets supplemented with kava, (+)-DHK, (+)-DHM, and synthetic (±)-DHM respectively at the specified dose during Day 1-Day 7. Mice in Groups 2-10 were given a single dose of NNK at 100 mg/kg bodyweight in saline (0.1 ml) via i.p. injection at the beginning of Day 7 while the mouse in Group 1 was given saline (0.1 ml). Mice were euthanized by CO2 overdosing 24 h after NNK treatment, and lung and liver tissues were collected and stored at −80° C. until DNA isolation. A set of NNK-induced DNA adducts (O^6-mG, 7-mG, 7-pobG, O^6-pobdG, O^2-pobdT, 7-phbG, O^6-phbdG and O^2-phbdT) were quantified by following reported procedures (Leitzman, P et al. (2014) Cancer. Prev. Res., 7: 86-96; Peterson, L A et al. (2013) Chem. Res. Toxicol. 26: 1464-1473; Upadhyaya, P et al. (2008) Chem. Res. Toxicol. 21: 1468-1476). For 7-mG isolation, DNA (30 μg) was dissolved in 10 mM sodium phosphate buffer, pH 7 (500 μL) and spiked with [^13C1^2H3]7-mG (10 pmol). Samples were heated to 80° C. for 30 minutes. An aliquot (100 μL) was removed for 7-mG analysis.

In series [3] the test system is NNK-induced lung tumorigenesis. The series can be described thus: NNK-induced lung adenoma formation in A/J mice. To be noted: Example 4, Day 119. In kind it is in vivo. As for the experimental part: Female A/J mice, 5-6 weeks of age from the Jackson Laboratory (Bar Harbor, Me.), were handled according to animal welfare protocols approved by IACUC at the University of Minnesota. […] After one-week acclimation, mice were weighed, randomized into different groups and switched to AIN-93G-powdered diet, defined as Day 1. The number of mice in each group was specified in the Result Section. On Day 7 and Day 14, mice in the negative control groups received 0.1 mL physiological saline solution while mice in the other groups received NNK (100 and 67 mg/kg respectively in 0.1 mL of physiological saline solution) via i.p. injection. At the end of Day 21, mice were switched to AIN-93M-powdered diet until the end of the study. Diet consumption was measured twice weekly and bodyweight was monitored weekly. All mice were euthanized with an overdose of carbon dioxide. The lungs were collected and tumors on the surface of the lung were counted.
Data on lung adenoma multiplicity were reported as mean±SD (n=5-40). […] For Experiment 2, unpaired t-test was used for comparison between NNK control and kava treatment groups. Two-sided p-value≤0.05 was considered statistically significant. Data on DNA adducts were reported as mean±SD (n=3). For the time-course study, unpaired […] was used for comparisons between NNK control and kava treatment groups. Two-sided p-value≤0.05 was considered statistically significant: *p<0.05, **p<0.01, and ***p<0.001. For the 24-h time point study, one-way ANOVA was used to compare means.
After one-week acclimation, mice were weighed, randomized into eight groups and switched to the AIN-93 G diet on a date defined as Day 1. The number of mice in each group is specified in the Results Section (FIG. 36). Mice were fed diets supplemented with different compounds at the dose specified in the Results Section during Day 1-Day 14. On Day 7 and Day 14, mice in the negative control group received 0.1 mL of saline solution while mice in the other groups received NNK (100 and 67 mg/kg, respectively, in 0.1 mL of saline solution) via i.p. injection. At the end of Day 21, mice were switched to the AIN-93 M diet until the end of the study. The diet was replenished twice weekly. The diet consumption was measured twice weekly and the bodyweight was monitored weekly. This study was terminated at the end of Day 119. All mice were euthanized with CO2 overdosing.

Series [4] has as its system NNK-induced DNA damage in liver tissues. The series can be described thus: NNK-induced DNA damage in A/J mouse liver tissues. In kind it is in vivo, A/J mice. Conditions: diet Day 1-Day 7, 24 h after NNK; data not shown. As for the experimental part:
DNA was isolated and purified from ˜100 mg lung and liver tissues of each mouse, following Genomic-tip 100/G protocol from Qiagen Corp (Valencia, Calif.).
as §1

The structures appear in SMILES notation.

Turning to `CC(=O)Nc1ccc(O)cc1` [APAP, acetaminophen, reference compound], in series [1] (APAP alone 800 mg/kg bodyweight via gavage), the “serum ALT and AST activities” value is reported as “significantly increased”. Also, the liver lesions result in series [1] (APAP alone 800 mg/kg, lesions graded 0 to 4) is listed as “evenly distributed among different severity categories”.

Consider `COC1=CC(=O)O[C@@H](/C=C/c2ccc3c(c2)OCO3)C1` [(+)-methysticin], for which the “effect on NNK-induced O^6-mG” value in series [2] (isolated kavalactones 1 mg/g of diet Day 1-Day 7) is given as “significantly reduced”.

With `COC1=CC(=O)O[C@@H](CCc2ccc3c(c2)OCO3)C1` (racemic) [(±)-DHM, (±)-dihydromethysticin], the “lung adenoma formation (incidence and multiplicity)” value in series [3] (0.5 mg/g of diet Day 1-Day 14) is recorded as “adenoma free”. Also, the “effect on NNK-induced DNA damage in the liver tissues” value in series [4] is “none of the treatments had significant effects”.

Consider `COC1=CC(=O)O[C@@H](CCc2ccccc2)C1` [(+)-DHK, (+)-dihydrokavain], for which the “lung adenoma formation (incidence and multiplicity)” value in series [3] (0.05 mg/g of diet Day 1-Day 14) and in series [3] (0.5 mg/g of diet Day 1-Day 14) was “no reduction at all” in each case. Besides, the “effect on O^6-mG and POB adducts” value in series [2] (1 mg/g of diet) is recorded as “did not reduce any of these adducts”. Further, the “effect on NNK-induced DNA damage in the liver tissues” value in series [4] is given as “none of the treatments had significant effects”.
